In patent US12319672B2, “Alpha-D-galactopyranoside derivatives” (Idorsia Pharmaceuticals Ltd, priority 2019, dated 2025) one finds IC50 data, which are given here for 18 compounds.

The target in one experiment is human Gal-3 (hGal-3) (Homo sapiens (Human), UniProt P17931). Nature of the experiment: Competitive binding assay: binding of biotinylated hGal-3 to microplate-adsorbed asialofetuin (ASF). The settings on record: Activity on hGal-3; mean values of several measurements. The gist of the method:
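Biotinylated hGal-3 (300-1000 ng/mL) bound to ASF-coated wells with serially diluted compound, 3 h at 4° C. After washing, bound protein was detected with streptavidin-peroxidase (80 ng/mL, 1 h, 4° C) and ABTS substrate; IC50 values are means of several measurements.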

A further experiment concerns the target human Gal-1 (hGal-1). Nature of the experiment: Competitive binding assay: binding of biotinylated hGal-1 to microplate-adsorbed asialofetuin (ASF). The settings on record: Activities on hGal-1; mean values of several measurements. The gist of the method: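 Compounds diluted in DMSO competed with biotinylated hGal-3 or hGal-1 (300-1000 ng/mL) for binding to plate-adsorbed asialofetuin for 3 h at 4° C. Bound galectin was detected with streptavidin-peroxidase (80 ng/mL, 1 h, 4° C) and ABTS substrate; IC50 reported as mean of several measurements.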

Structures are written as SMILES.

Chain of human Gal-1 (hGal-1) (P09382 2-135 limits assumed): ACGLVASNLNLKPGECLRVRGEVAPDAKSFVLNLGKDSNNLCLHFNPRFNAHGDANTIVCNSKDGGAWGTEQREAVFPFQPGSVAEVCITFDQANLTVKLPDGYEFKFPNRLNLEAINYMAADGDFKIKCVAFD
Chain of human Gal-3 (hGal-3) (P17931 whole entry): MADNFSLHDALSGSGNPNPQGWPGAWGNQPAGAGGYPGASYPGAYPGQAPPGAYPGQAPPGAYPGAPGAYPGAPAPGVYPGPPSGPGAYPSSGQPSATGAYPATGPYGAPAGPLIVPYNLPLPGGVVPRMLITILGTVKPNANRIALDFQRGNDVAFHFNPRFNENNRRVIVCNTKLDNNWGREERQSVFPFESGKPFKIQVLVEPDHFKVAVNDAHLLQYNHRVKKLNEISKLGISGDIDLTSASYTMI

Regarding `CO[C@@H]1[C@@H](n2cc(-c3cc(F)c(F)c(F)c3)nn2)[C@@H](O)[C@@H](CO)O[C@@H]1Cc1cn(C(C)(C)C)nn1` [Example 4.45, (2R,3R,4S,5R,6R)-6-((1-(tert-butyl)-1H-1,2,3-triazol-4-yl)methyl)-2-(hydroxymethyl)-5-methoxy-4-(4-(3,4,5-trifluorophenyl)-1H-1,2,3-triazol-1-yl)tetrahydro-2H-pyran-3-ol], the 50% inhibitory concentration (IC50) on human Gal-3 (hGal-3) is 85 nM; at human Gal-1 (hGal-1), 1120 nM.
Take `CO[C@@H]1[C@@H](n2cc(-c3ccc(F)c(F)c3F)nn2)[C@@H](O)[C@@H](CO)O[C@@H]1Cc1cn(C(C)(C)C)nn1` [Example 4.46, (2R,3R,4S,5R,6R)-6-((1-(tert-butyl)-1H-1,2,3-triazol-4-yl)methyl)-2-(hydroxymethyl)-5-methoxy-4-(4-(2,3,4-trifluorophenyl)-1H-1,2,3-triazol-1-yl)tetrahydro-2H-pyran-3-ol]: the figures for the IC50 at human Gal-3 (hGal-3) and at human Gal-1 (hGal-1) were 45 nM and 310 nM, respectively.
The like results for `CO[C@@H]1[C@@H](n2cc(-c3cc(F)c(F)c(F)c3)nn2)[C@@H](O)[C@@H](CO)O[C@@H]1Cn1cc(C2(O)CCCCC2)nn1` [Example 4.47, (2R,3R,4S,5R,6R)-6-((4-(1-hydroxycyclohexyl)-1H-1,2,3-triazol-1-yl)methyl)-2-(hydroxymethyl)-5-methoxy-4-(4-(3,4,5-trifluorophenyl)-1H-1,2,3-triazol-1-yl)tetrahydro-2H-pyran-3-ol] were, in that order, 330 nM and 3060 nM.
The corresponding values for `CO[C@@H]1[C@@H](n2cc(-c3cc(F)c(F)c(F)c3)nn2)[C@@H](O)[C@@H](CO)O[C@@H]1Cn1cc(C2CCCC2)nn1` [Example 4.48, (2R,3R,4S,5R,6R)-6-((4-cyclopentyl-1H-1,2,3-triazol-1-yl)methyl)-2-(hydroxymethyl)-5-methoxy-4-(4-(3,4,5-trifluorophenyl)-1H-1,2,3-triazol-1-yl)tetrahydro-2H-pyran-3-ol] are 250 nM and 2860 nM.
The corresponding values for `CO[C@@H]1[C@@H](n2cc(-c3cc(F)c(F)c(F)c3)nn2)[C@@H](O)[C@@H](CO)O[C@@H]1Cn1cc(C2(C)CCCC2)nn1` [Example 4.49, (2R,3R,4S,5R,6R)-2-(hydroxymethyl)-5-methoxy-6-((4-(1-methylcyclopentyl)-1H-1,2,3-triazol-1-yl)methyl)-4-(4-(3,4,5-trifluorophenyl)-1H-1,2,3-triazol-1-yl)tetrahydro-2H-pyran-3-ol] are 240 nM and 3930 nM.
Turning to `CO[C@@H]1[C@@H](n2cc(-c3cc(F)c(F)c(F)c3)nn2)[C@@H](O)[C@@H](CO)O[C@@H]1Cn1cc(C2(C#N)CCCC2)nn1` [Example 4.50, 1-(1-(((2R,3R,4S,5R,6R)-5-hydroxy-6-(hydroxymethyl)-3-methoxy-4-(4-(3,4,5-trifluorophenyl)-1H-1,2,3-triazol-1-yl)tetrahydro-2H-pyran-2-yl)methyl)-1H-1,2,3-triazol-4-yl)cyclopentane-1-carbonitrile], the half-maximal inhibitory concentration (IC50) was determined as 330 nM at human Gal-3 (hGal-3) and 4290 nM on human Gal-1 (hGal-1).
The like results for `CO[C@@H]1[C@@H](n2cc(-c3cc(F)c(F)c(F)c3)nn2)[C@@H](O)[C@@H](CO)O[C@@H]1Cn1cc(C2(C)CCOCC2)nn1` [Example 4.51, (2R,3R,4S,5R,6R)-2-(hydroxymethyl)-5-methoxy-6-((4-(4-methyltetrahydro-2H-pyran-4-yl)-1H-1,2,3-triazol-1-yl)methyl)-4-(4-(3,4,5-trifluorophenyl)-1H-1,2,3-triazol-1-yl)tetrahydro-2H-pyran-3-ol] were, in that order, 160 nM and 1600 nM.
In the case of `CO[C@@H]1[C@@H](n2cc(-c3ccc(C)c(F)c3F)nn2)[C@@H](O)[C@@H](CO)O[C@@H]1Cc1cn(C(C)(C)C)nn1` [Example 4.52, (2R,3R,4S,5R,6R)-6-((1-(tert-butyl)-1H-1,2,3-triazol-4-yl)methyl)-4-(4-(2,3-difluoro-4-methylphenyl)-1H-1,2,3-triazol-1-yl)-2-(hydroxymethyl)-5-methoxytetrahydro-2H-pyran-3-ol], the figures for the IC50 on human Gal-3 (hGal-3) and on human Gal-1 (hGal-1) were 53 nM and 730 nM, respectively.
The corresponding values for `CO[C@@H]1[C@@H](n2cc(-c3ccc(Cl)c(F)c3F)nn2)[C@@H](O)[C@@H](CO)O[C@@H]1Cc1cn(C(C)(C)C)nn1` [Example 4.53, (2R,3R,4S,5R,6R)-6-((1-(tert-butyl)-1H-1,2,3-triazol-4-yl)methyl)-4-(4-(4-chloro-2,3-difluorophenyl)-1H-1,2,3-triazol-1-yl)-2-(hydroxymethyl)-5-methoxytetrahydro-2H-pyran-3-ol] are 34 nM and 750 nM.
The corresponding values for `CO[C@@H]1[C@@H](n2cc(-c3ccc(C)c(F)c3F)nn2)[C@@H](O)[C@@H](CO)O[C@@H]1Cn1cc(C(C)(C)C)nn1` [Example 4.54, (2R,3R,4S,5R,6R)-6-((4-(tert-butyl)-1H-1,2,3-triazol-1-yl)methyl)-4-(4-(2,3-difluoro-4-methylphenyl)-1H-1,2,3-triazol-1-yl)-2-(hydroxymethyl)-5-methoxytetrahydro-2H-pyran-3-ol] are 46 nM and 1500 nM.
The corresponding values for `CO[C@@H]1[C@@H](n2cc(-c3ccc(Cl)c(F)c3F)nn2)[C@@H](O)[C@@H](CO)O[C@@H]1Cn1cc(C(C)(C)C)nn1` [Example 4.55, (2R,3R,4S,5R,6R)-6-((4-(tert-butyl)-1H-1,2,3-triazol-1-yl)methyl)-4-(4-(4-chloro-2,3-difluorophenyl)-1H-1,2,3-triazol-1-yl)-2-(hydroxymethyl)-5-methoxytetrahydro-2H-pyran-3-ol] are 31 nM and 950 nM.
Regarding `CO[C@@H]1[C@@H](n2cc(-c3cc(F)c(F)c(F)c3)nn2)[C@@H](O)[C@@H](CO)O[C@@H]1C[C@@H]1CN(C2CCN(C(C)=O)CC2)C(=O)O1` [Example 5.05, (R)-3-(1-acetylpiperidin-4-yl)-5-(((2R,3R,4S,5R,6R)-5-hydroxy-6-(hydroxymethyl)-3-methoxy-4-(4-(3,4,5-trifluorophenyl)-1H-1,2,3-triazol-1-yl)tetrahydro-2H-pyran-2-yl)methyl)oxazolidin-2-one], the IC50 at human Gal-3 (hGal-3) stood at 330 nM; on human Gal-1 (hGal-1), 300 nM.
The like results for `CO[C@@H]1[C@@H](n2cc(-c3cc(F)c(F)c(F)c3)nn2)[C@@H](O)[C@@H](CO)O[C@@H]1C[C@H]1CN(C2CCN(C(C)=O)CC2)C(=O)O1` [Example 5.06, (S)-3-(1-acetylpiperidin-4-yl)-5-(((2R,3R,4S,5R,6R)-5-hydroxy-6-(hydroxymethyl)-3-methoxy-4-(4-(3,4,5-trifluorophenyl)-1H-1,2,3-triazol-1-yl)tetrahydro-2H-pyran-2-yl)methyl)oxazolidin-2-one] were, in that order, 96 nM and 270 nM.
`CO[C@@H]1[C@@H](n2cc(-c3cc(F)c(F)c(F)c3)nn2)[C@@H](O)[C@@H](CO)O[C@@H]1C[C@H]1CN(C2CCN(S(C)(=O)=O)CC2)C(=O)O1` [Example 5.07, (S)-5-(((2R,3R,4S,5R,6R)-5-hydroxy-6-(hydroxymethyl)-3-methoxy-4-(4-(3,4,5-trifluorophenyl)-1H-1,2,3-triazol-1-yl)tetrahydro-2H-pyran-2-yl)methyl)-3-(1-(methylsulfonyl)piperidin-4-yl)oxazolidin-2-one]: the values for the IC50 on human Gal-3 (hGal-3) and at human Gal-1 (hGal-1) were 280 nM and 7570 nM, respectively.
The corresponding values for `CO[C@@H]1[C@@H](n2cc(-c3cc(F)c(F)c(F)c3)nn2)[C@@H](O)[C@@H](CO)O[C@@H]1C[C@@H]1CN(C2CCN(S(C)(=O)=O)CC2)C(=O)O1` [Example 5.08, (R)-5-(((2R,3R,4S,5R,6R)-5-hydroxy-6-(hydroxymethyl)-3-methoxy-4-(4-(3,4,5-trifluorophenyl)-1H-1,2,3-triazol-1-yl)tetrahydro-2H-pyran-2-yl)methyl)-3-(1-(methylsulfonyl)piperidin-4-yl)oxazolidin-2-one] are 18 nM and 160 nM.
Consider `CO[C@@H]1[C@@H](n2cc(-c3cc(F)c(F)c(F)c3)nn2)[C@@H](O)[C@@H](CO)O[C@@H]1C[C@H]1CN(C2CCN(C(=O)C(C)C)CC2)C(=O)O1` [Example 5.12, (S)-5-(((2R,3R,4S,5R,6R)-5-hydroxy-6-(hydroxymethyl)-3-methoxy-4-(4-(3,4,5-trifluorophenyl)-1H-1,2,3-triazol-1-yl)tetrahydro-2H-pyran-2-yl)methyl)-3-(1-isobutyrylpiperidin-4-yl)oxazolidin-2-one], for which the IC50 at human Gal-3 (hGal-3) was 130 nM; on human Gal-1 (hGal-1), 1000 nM.
As to `CO[C@@H]1[C@@H](n2cc(-c3cc(F)c(F)c(F)c3)nn2)[C@@H](O)[C@@H](CO)O[C@@H]1C[C@@H]1CN(C2CCN(C(=O)C(C)C)CC2)C(=O)O1` [Example 5.13, (R)-5-(((2R,3R,4S,5R,6R)-5-hydroxy-6-(hydroxymethyl)-3-methoxy-4-(4-(3,4,5-trifluorophenyl)-1H-1,2,3-triazol-1-yl)tetrahydro-2H-pyran-2-yl)methyl)-3-(1-isobutyrylpiperidin-4-yl)oxazolidin-2-one], the concentration for half-maximal inhibition (IC50) on human Gal-3 (hGal-3) is 590 nM; at human Gal-1 (hGal-1) it was 4730 nM.
The corresponding values for `CO[C@@H]1[C@@H](n2cc(-c3cc(F)c(F)c(F)c3)nn2)[C@@H](O)[C@@H](CO)O[C@@H]1C[C@H]1CN(C2CCN(C(=O)OC(C)(C)C)CC2)C(=O)O1` [Example 5.14, tert-butyl 4-((S)-5-(((2R,3R,4S,5R,6R)-5-hydroxy-6-(hydroxymethyl)-3-methoxy-4-(4-(3,4,5-trifluorophenyl)-1H-1,2,3-triazol-1-yl)tetrahydro-2H-pyran-2-yl)methyl)-2-oxooxazolidin-3-yl)piperidine-1-carboxylate] are 340 nM and 6410 nM.

Broadly, the IC50 is the midpoint of a concentration-inhibition curve. Low readings indicate greater potency in that assay, high ones weaker potency in that assay.
